Several values for one entry are separate records, joined by “and”; a condition that tells them apart may be missing. Equal entries are not always repeated. Where two headings read alike, the source gives them in different places.
Columns and labels:
HSV-1 (strain F) [1] = assay: Electron microscopy of Vero cells infected with HSV-1 (strain F) pretreated with SLS; assay type: cell-based, Herpes simplex virus type-1
Protocol: The appearance of HSV-1 (strain F) pretreated with varying SLS concentrations (50, 75 and 100 μM) for 1 h at 37° C. has been evaluated in Vero cells using electron microscopy. In brief, cells (80–90% confluent) were infected with the virus (approximately 70 PFU/ml in 14 ml) for 48 h at 37° C. in a 5% CO2 atmosphere. Cells were scrapped off from the dishes and resuspended in culture medium. Cells were centrifuged (515× g for 10 min at 4° C.) and the supernatant was decanted and cells were resuspended in approximately 500 μl medium. Cells were transferred in an eppendorf tube and centrifuged at (10,000× g for 5 min at 4° C.). The pellet was resuspended in approximately 200 μl of 20% bovine serum albumin (BSA). Few drops of 25% glutaraldehyde were added to the mixture and samples were immediately put in an ice bath to allow BSA polymerization. The pellet was then cut in 1 mm^3 samples which were then fixed in 2% glutaraldehyde in PBS for 1 h, 1% OsO4 in PBS for 1 h and then with 0.1% tannic acid in PBS for 30 min. Samples were rinsed 3 times in PBS for 5 min between each step. Samples were stained with 2% uranyl acetate in 10% ethanol for 30 min. Samples were dehydrated and embedded in Epon following routine procedures. Sections (approximately 75 nm thickness) were mounted on copper grid (200 mesh). […]

HSV-1 (strain F) [2] = assay: Infectivity of HSV-1 (strain F) to Vero cells after treatment with SLS or DS (plaque forming units); assay type: cell-based, Herpes simplex virus type-1; conditions: for IC50: Human alphaherpesvirus 1, Vero, FIG. 1, read-out: concentration giving a loss of 50% of the viral infectivity
Protocol: (§1) The effect of pretreating different strains of herpes viruses with SLS or DS on their viral infectivities to susceptible cells has been evaluated. In brief, cells were seeded in 24 well-plates (Costar, Montreal, QC, Canada). Prior to infection, the virus was either suspended in culture medium or phosphate buffered saline (PBS), or incubated with different concentrations of SLS in PBS for 1 h at 37° C. At confluency, cells were incubated with viral suspensions by centrifuging the plates (750× g for 45 min at 20° C.) to allow virus adsorption. Virus was removed and cell sheets were then overlaid with 0.5 ml of 0.6% agarose Seaplaque (Marine Colloids, Rockland, Md.) prepared in appropriate culture medium. The plates were incubated for 2 days at 37° C. Cells were then fixed with 10% formaldehyde in PBS for 20 min, washed with deionized water and stained with 0.05% methylene blue. Viral infectivity was evaluated via the determination of Plaque Forming Units (PFU).
HSV-1 (strain F) infectivity was reduced to 21% when viral particles were pretreated with 25 μM SLS. The infectivities of all HSV-2 strains were between 50 to 70% following preincubation with 25 μM SLS. A complete loss of the infectivity of all strains tested were obtained following pretreatment of the viruses with 50 μM SLS.
When SLS was immediately added to Vero cells following their infection, the loss of viral infectivity was less dramatic compared to that obtained for virus pretreated for 1 h at 37° C. with the same SLS concentrations. […] Similarly, pretreatment of the HSV-2 (strain 333) with SLS also influenced the infectivity of this strain (data not shown). On the other hand, DS reduces the infectivity of the virus independent of whether the virus was pretreated with DS.

HSV-2 (22) = assay: Infectivity of HSV-2 (22) pretreated with SLS on Vero cells (PFU); assay type: cell-based, Herpes simplex virus type-2
Protocol: as §1

HSV-1 (strain F) [3] = assay: Murine cutaneous infection model, HSV-1 pretreated with SLS or DS; assay type: in vivo, hairless mice (SKH1)
Protocol: The effect of pretreating HSV-1 (strain F) with SLS on viral infectivity has also been evaluated in a murine cutaneous infection model. Female hairless mice (SKH1; Charles River Breeding Laboratories Inc., St-Constant, QC, Canada), 5–6 weeks old were used throughout this study. […] Mice were anesthetized by intraperitoneal injection of a mixture containing 70 mg/kg ketamine hydrochloride (Rogarsetic* injection USP; Rogar/STB Inc. Montreal, QC, Canada) and 11.5 mg/kg xylazine (Rompun®; Miles Canada Inc., Etobicoke, ON, Canada). The virus was inoculated on the lateral side of the body in the left lumbar skin area. The skin was scratched six times in a crossed-hatched pattern with a 27-gauge needle held vertically. Viral suspension (50 μl) was deposited onto the scarified area and rubbed for 10 to 15 see with a cotton tipped applicator saturated with EMEM+2% FBS or SLS or DS solutions. The scarified area was protected with a corn cushion which was maintained on the mice body with surgical tape. The porous inner wall of the aperture of the corn cushion was impermeabilized with tissue adhesive prior to use to prevent absorption of the drug. The aperture of the corn cushion was also closed with surgical tape. Mice were then returned to their cages and observed twice daily.
In infected untreated mice, no pathological signs of cutaneous infection were visible during the first four days following infection and only the scarified area remained appearent. On day 5, herpetic skin lesions began to appear in some mice in the form of small vesicles distant from the inoculation site. On day 6, almost all untreated mice developed herpetic skin lesions in the form of a 4–5 mm wide band extending from the spine to the ventral midline of the infected dermatome similar to zoster-like infections. Maximal mean lesion score was observed on day 8. Mean lesion score decreased thereafter from day 11 to day 15 because of spontaneous regression of cutaneous lesions in some mice. […] Of prime importance, all mice infected with the virus pretreated with 100 μM SLS survived the infection (data not shown).

HSV-2 = conditions: Howett et al., 1999; cited from earlier work
HSV-2 (strain 22) = assay: Murine intranasal infection model, HSV-2 pretreated with SLS; assay type: in vivo, Balb/c mice
Protocol: The effect of pretreating HSV-2 (strain 22) with SLS on viral infectivity has also been evaluated in a murine intranasal infection model. In brief, female Balb/c mice (Charles River Breeding Laboratories Inc., St-Constant, QC, Canada) 4 weeks-old were used throughout this study. Prior to the infection, HSV-2 (strain 22) was incubated for 1 h at 37° C. with PBS or with different concentrations of SLS (6.25, 25 or 100 μM) to reach a final viral inoculum of 2,000 PFU/20 μl. Mice were slightly anesthetized using Aerrane® (Isoflurane, USP; Janssen, North York, ON, Canada) and viral suspension (20 μl total volume) was applied into the external left nare of mice. Mice were then returned to their cages and survival was evaluated daily.

[4] = virus pretreated with 100 μM SLS for 1 h at 37° C.
[5] = virus pretreated with 6.25 μM SLS for 1 hour at 37° C.
[6] = virus pretreated with 12.5 μM SLS for 1 hour at 37° C.
[7] = virus pretreated with 50 μM SLS for 1 hour at 37° C.
[8] = viral suspension pretreated with 100 μM SLS

CCCCCCCCCCCCOS(=O)(=O)[O-].[Na+] [SLS, Sodium lauryl sulfate]
cells with empty capsids in the nuclei (electron microscopy) (HSV-1 (strain F) [1]; [4]): only a few cells with empty capsids in the nuclei could be detected
appearance of viral particles in infected Vero cells (electron microscopy) (HSV-1 (strain F) [1]; virus pretreated with 50, 75 and 100 μM SLS for 1 h at 37° C.): No mature nucleocapsid could be observed
inhibition of viral infectivity (HSV-1 (strain F) [2]; 100 μM SLS without pretreatment): not complete
IC50 (HSV-1 (strain F) [2]; virus not pretreated (added without pretreatment)): 75 µM
IC50 (HSV-1 (strain F) [2]; virus pretreated for 1 h at 37° C.): 20 µM
inhibition of viral infectivity (HSV-1 (strain F) [2]; preincubation of virus with 50 μM SLS): complete inhibition
PFU (% of control) for HSV-1 (F) (HSV-1 (strain F) [2]; [5]): 101.1 ± 7.0 % of control
PFU (% of control) for HSV-1 (F) (HSV-1 (strain F) [2]; [6]): 79.2 ± 36.4 % of control
PFU (% of control) for HSV-1 (F) (HSV-1 (strain F) [2]; virus pretreated with 25 μM SLS for 1 hour at 37° C., sulfate): 21 % of control and 21.2 ± 18.0 % of control
PFU (% of control) for HSV-1 (F) (HSV-1 (strain F) [2]; [7]): 0 % of control
PFU (% of control) for HSV-2 (22) (HSV-2 (22); [5]): 128.0 ± 18.5 % of control
PFU (% of control) for HSV-2 (22) (HSV-2 (22); [6]): 103.4 ± 14.9 % of control
PFU (% of control) for HSV-2 (22) (HSV-2 (22); virus pretreated with 25 μM SLS for 1 hour at 37° C.): 63.8 ± 11.9 % of control
PFU (% of control) for HSV-2 (22) (HSV-2 (22); [7]): 0 % of control
cutaneous lesions (HSV-1 (strain F) [3]; [4]): did not demonstrate any signs of cutaneous lesions
mice that survived the infection (HSV-1 (strain F) [3]; virus pretreated with 100 μM SLS, data not shown): all
mean lesion score (HSV-1 (strain F) [3]; virus pretreated with 6.25 and 25 μM SLS for 1 h at 37° C.): did not demonstrate a significant reduction
inactivation of HSV-2 (HSV-2): potent inactivator
mice that survived the infection (HSV-2 (strain 22); viral inoculum pretreated with 6.25 μM SLS): 67%
mice that survived the infection (HSV-2 (strain 22); viral inoculum pretreated with 25 μM SLS): 67%
mice that survived the infection (HSV-2 (strain 22); [8]): all
signs of illness (HSV-2 (strain 22); [8]): did not demonstrate any sign of illness
